Legend:
[1] = test system: human leukocyte leukemia cells HEL; assay: Cell proliferation (Cell Titer-Glo), HEL; type: cell-based; conditions: 72 hours, read-out: Effects on cell proliferation (GI50)
Method: (§1) The selectivity of Compound 1 in inhibiting the proliferation of cancer cells was further evaluated by testing the effect of Btk inhibitors on the growth of cancer cells. […]
(§2) In this example different concentrations (0.000508 μM, 0.00152 μM, 0.00457 μM, 0.0137 μM, 0.0411 μM, 0.123 μM, 0.370 μM, 1.11 μM, 3.33 μM, 10 μM) of Compound 1 and Compound 6 were respectively added into the above cells which were then cultured for 72 hours. The number of viable cells was determined via quantitative determination of ATP in living cells by using Cell Titer-Glo® (Promega, the USA) Chemical Luminescent Cell Viability Assay kit.

[2] = test system: diffuse large B-cell lymphoma cell lines Pfeiffer; assay: Cell proliferation (Cell Titer-Glo), Pfeiffer; type: cell-based; conditions: Homo sapiens, 72 hours, read-out: Effects on cell proliferation (GI50)
Method: as §1, §2

leukemia cell OCI-AML-3 = assay: Cell proliferation (Cell Titer-Glo), OCI-AML-3; type: cell-based; conditions: Homo sapiens; OCI-AML-3, 72 hours; read-out: Effects on cell proliferation (GI50)
Method: as §1, §2

[3] = test system: diffuse histiocytic lymphoma cells SU-DHL-2; assay: Cell proliferation (Cell Titer-Glo), SU-DHL-2; type: cell-based; conditions: Homo sapiens; SU-DHL-2, 72 hours; read-out: Effects on cell proliferation (GI50)
Method: as §1, §2

BTK protein kinase = BTK protein kinase (Homo sapiens, UniProt Q06187); assay: In vitro enzymatic activity against BTK (ADP-Glo); type: biochemical; conditions: for IC50: compound with BTK 4 hours at room temperature, ATP 10 μM, 37° C. 1 hour, values in nM
Method in brief: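 BTK (1.5 ng/μL enzyme solution) was preincubated with compound (final 10 μM to 0.003 μM) for 4 h at room temperature. Reaction ran 1 h at 37 °C with 10 μM ATP and 0.2 μg/μL poly(Glu,Tyr) 4:1 (final). ADP formed was measured by ADP-Glo luminescence, and IC50 was obtained by curve plotting.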

[4] = test system: acute myelocytic leukemia cell strains HL-60; assay: Cell proliferation (Cell Titer-Glo), HL60; type: cell-based; conditions: Homo sapiens, HL60, 72 hours, read-out: Effects on cell proliferation (GI50)
Method: as §1, §2

BTK WT = BTK WT (Homo sapiens, UniProt Q06187); assay: Btk cell-free kinase assay, BTK WT protein; type: biochemical; conditions: compound 30 mins at room temperature, then 100 μM ATP 20 min at 37° C.
From the text: The BTK wild-type plasmid and the BTK mutant plasmid (C481S) were respectively transfected into SF9 cells (purchased from invitrogen), and after three generations of virus amplification, the P3-generation virus was used to transfect SF9 cells which were collected after 72-hour culture to obtain protein BTK WT and protein BTK C481S, which were then purified.

[5] = test system: B-cell lymphoma cells U2932; assay: Cell proliferation (Cell Titer-Glo), U2932; type: cell-based; conditions: Homo sapiens; U2932, 72 hours; read-out: Effects on cell proliferation (GI50)
Method: as §1, §2

B-lymphoma cell Ramos = assay: Cell proliferation (Cell Titer-Glo), Ramos; type: cell-based; conditions: Homo sapiens, Romas, 72 hours, read-out: Effects on cell proliferation (GI50)
Method: as §1, §2

[6] = molecular target: T1, TEL-BMX-BaF3 cells (stably expressing TEL-BMX activated kinase) (Homo sapiens, UniProt P51813); assay: Cell proliferation (Cell Titer-Glo), BaF3-tel-BMX; type: cell-based; conditions: BaF3-tel-BMX (mouse BaF3 cells), 72 hours; read-out: Effects on cell proliferation (GI50)
T1 construct: expressed in transfected cells; host or cells: mouse BaF3 cells, retroviral MSCV-Puro; the other entry of the earlier key: ETV6 (P41212, Transcription factor ETV6)
Method: as §1, §2

[7] = molecular target: T2, TEL-LYN-BaF3 cells (stably expressing TEL-LYN activated kinase) (Homo sapiens, UniProt P07948); assay: Cell proliferation (Cell Titer-Glo), BaF3-tel-LYN; type: cell-based; conditions: BaF3-tel-LYN (mouse BaF3 cells), 72 hours; read-out: Effects on cell proliferation (GI50)
T2 construct: expressed in transfected cells; host or cells: mouse BaF3 cells, retroviral MSCV-Puro; the other entry of the earlier key: ETV6 (P41212, Transcription factor ETV6)
Method: as §1, §2

Chain of BTK protein kinase (Q06187 whole entry): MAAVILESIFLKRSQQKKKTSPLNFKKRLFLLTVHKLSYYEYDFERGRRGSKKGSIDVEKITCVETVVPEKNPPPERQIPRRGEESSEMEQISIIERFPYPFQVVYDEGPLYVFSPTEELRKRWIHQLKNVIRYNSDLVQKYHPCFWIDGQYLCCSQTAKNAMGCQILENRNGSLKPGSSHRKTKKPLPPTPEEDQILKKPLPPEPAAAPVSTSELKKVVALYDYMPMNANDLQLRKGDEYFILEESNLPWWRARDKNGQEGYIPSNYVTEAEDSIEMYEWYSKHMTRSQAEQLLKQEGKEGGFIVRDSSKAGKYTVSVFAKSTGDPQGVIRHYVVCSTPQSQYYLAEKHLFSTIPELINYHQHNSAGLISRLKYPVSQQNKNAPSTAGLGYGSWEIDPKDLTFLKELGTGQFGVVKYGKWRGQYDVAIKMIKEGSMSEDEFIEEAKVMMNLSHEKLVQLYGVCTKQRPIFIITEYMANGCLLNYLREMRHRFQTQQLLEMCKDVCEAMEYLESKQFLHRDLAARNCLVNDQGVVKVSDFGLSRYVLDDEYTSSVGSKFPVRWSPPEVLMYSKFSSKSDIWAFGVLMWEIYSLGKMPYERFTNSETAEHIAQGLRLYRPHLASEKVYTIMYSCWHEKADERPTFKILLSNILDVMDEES
Chain of BTK WT (Q06187 whole entry): as above
T2 sequence (P07948 247-501 limits assumed): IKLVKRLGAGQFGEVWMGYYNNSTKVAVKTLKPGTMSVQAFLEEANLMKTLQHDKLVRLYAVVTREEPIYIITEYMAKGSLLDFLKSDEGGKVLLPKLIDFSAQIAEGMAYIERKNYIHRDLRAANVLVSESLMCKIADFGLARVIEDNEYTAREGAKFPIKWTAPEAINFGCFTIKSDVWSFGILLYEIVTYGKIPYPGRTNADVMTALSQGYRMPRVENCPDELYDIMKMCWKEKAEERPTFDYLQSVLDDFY
T1 sequence (P51813 417-675 limits assumed): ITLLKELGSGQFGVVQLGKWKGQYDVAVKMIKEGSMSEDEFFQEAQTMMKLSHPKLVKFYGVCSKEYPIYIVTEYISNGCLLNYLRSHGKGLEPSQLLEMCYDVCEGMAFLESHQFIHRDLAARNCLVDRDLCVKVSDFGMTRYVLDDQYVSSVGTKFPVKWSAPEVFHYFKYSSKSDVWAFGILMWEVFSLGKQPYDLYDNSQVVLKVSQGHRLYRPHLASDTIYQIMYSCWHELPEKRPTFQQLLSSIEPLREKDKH

## CCC(=O)Nc1cc(Nc2cc(-c3cccc(NC(=O)c4ccc(C(C)(C)C)cc4)c3C)cn(C)c2=O)ccc1C(=O)N1CCOCC1 [Compound 6, N-(3-(5-((3-propanamide-4-(morpholin-4-carbonyl)phenyl)amino)-1-methyl-6-oxo-1,6-dihydropyridin-3-yl)-2-methylphenyl)-4-(tert-butyl)benzamide]
[1]
  GI50: > 10 µM
[2]
  GI50: > 10 µM
Leukemia cell OCI-AML-3
  GI50: 9.5 µM
[3]
  GI50: > 10 µM
BTK protein kinase; ADP-Glo assay, in words
  inhibitory effects on BTK protein: relatively strong inhibitory effects
BTK protein kinase
  IC50: 207 nM
[4]
  GI50: > 10 µM
BTK WT
  inhibitory effects against BTK WT: no inhibitory effects
[5]
  GI50: > 10 µM
B-lymphoma cell Ramos
  GI50: 4.6 µM
[6]
  GI50: 4.1 µM
[7]
  GI50: 6.8 µM

## C=CC(=O)Nc1cc(Nc2cc(-c3cccc(NC(=O)c4ccc(C(C)(C)C)cc4)c3C)cn(C)c2=O)ccc1C(=O)N1CCOCC1 [Compound 1, N-(3-(5-((3-acrylamide-4-(morpholin-4-carbonyl)phenyl)amino)-1-methyl-6-oxo-1,6-dihydropyridin-3-yl)-2-methylphenyl)-4-(tert-butyl)benzamide]
[1]
  GI50: 5.3 µM
[2]
  GI50: 4.5 µM
Leukemia cell OCI-AML-3
  GI50: 3.8 µM
[3]
  GI50: 3 µM
BTK protein kinase
  IC50: 7.09 nM
[4]
  GI50: 5.5 µM
BTK WT; read-out: EC50 against BTK WT protein
  EC50: 0.0047 µM
[5]
  GI50: 2.4 µM
B-lymphoma cell Ramos
  GI50: 3.5 µM
[6]
  GI50: 0.38 µM
[7]
  GI50: 6.3 µM
